Experiments:
Assay type in all cases: cell-based
[1] = tested on: HeLa cells; test: Kinetic profile of SYTO13 or SYTO15 fluorescence under continuous illumination, HeLa cells treated with apoptogenic agent; settings: 1 μM, 7 hours
Method: HeLa cells were treated for 7 hours with (∘, Δ) or without ([…], ▴) 1 μM staurosporine. The cells were then labelled with a 10 μM solution of SYTO13 (Δ, ▴) or SYTO15 (∘, […]) then subjected to continuous illumination for 300 seconds. The intensity of fluorescence is then measured every 5 seconds. Each intensity value is then expressed as a percentage of the first fluorescence value measured. (IF: intensity of fluorescence; T: illumination time).
HeLa cells (Sigma-Aldrich) are plated into a 96-well format transparent-bottomed black microplate at 20000 cells per well the day before the experiment. On the day of the test the cells are or are not treated with 1 μM of staurosporine for 7 hours. The cells are then labelled for 20 minutes with 50 μl of a 10 μM solution of SYTO13 (Invitrogen) or SYTO15 (Invitrogen) prepared in buffer A.
The labelled cells are placed under a fluorescence reader of the Varioskan type (Thermo Electron Corporation) equipped with a Xenon Flash lamp. The samples labelled with SYTO13 and SYTO15 are then subjected for 300 seconds to continuous illumination at 488 nm and 516 nm respectively. The fluorescence intensities emitted by these biosensors are then measured every 5 seconds.

[2] = tested on: HeLa cells; test: Kinetic profile of SYTO62 fluorescence under continuous illumination, HeLa cells treated with apoptotic agent; settings: 7 hours, 10 μM SYTO62, illumination 40 seconds at 488 nm
Method: HeLa cells were treated for 7 hours with (Δ, □, ⋄) or without (∘) 0.1 μM (Δ), 0.5 μM (□) and 1 μM (⋄) staurosporine. The cells were then labelled with a 10 μM solution of SYTO62 then subjected to continuous illumination for 40 seconds. The intensity of fluorescence is then measured every second. Each intensity value is then expressed as a percentage of the first fluorescence value measured. (IF: intensity of fluorescence; T: illumination time). HeLa cells (Sigma-Aldrich) are plated into a 96-well format transparent-bottomed black microplate at 20000 cells per well the day before the experiment. On the day of the test the cells are or are not treated with 0.1, 0.5 and 1 μM of staurosporine (Sigma-Aldrich) for 7 hours. The cells are then labelled for 20 minutes with 50 μl of a 10 μM solution of SYTO62 (Invitrogen) prepared in a buffer containing 25 mM Hepes, 140 mM NaCl, 1 mM EDTA and 0.1% bovine serum albumin (BSA), pH 7.4 (buffer A). The samples are placed under a fluorescence microscope (Leica DMIRB) at ×100 magnification then subjected to continuous illumination at 488 nm with a mercury lamp (HBO […]/2) for 40 seconds. The intensity of fluorescence emitted by the biosensor is then measured every second.

[3] = tested on: HepG2 cells; test: Kinetic profile of SYTO13 fluorescence under continuous illumination, HepG2 cells treated with okadaic acid; settings: 0.01, 0.031, 0.1, 0.31 and 1 μM, 24 hours, 2 μM final SYTO13, illumination 20 seconds at 488 nm
Method: The cells were then labelled with a solution of SYTO13 of 2 μM final concentration then subjected to continuous illumination for 20 seconds. The intensity of fluorescence is then measured every 0.4 seconds. Each intensity value is then expressed as a percentage of the first fluorescence value measured. (IF: intensity of fluorescence; T: illumination time).
HepG2 cells (ATCC) are plated into a 96-well format transparent-bottomed black microplate at 20000 cells per well two days before the experiment. The day before the test the cells are or are not treated with 75 μl of 0.01, 0.031, 0.1, 0.31 and 1 μM solutions of okadaic acid (Sigma-Aldrich). The cells are incubated for 24 hours.
On the day of the test, the cells are labelled for 30 minutes at 37° C. with 25 μl of an 8 μM solution of SYTO13 (Invitrogen) (i.e. 2 μM final) prepared in MEM culture medium (Invitrogen).
The samples are placed under a fluorescence microscope at ×100 magnification then subjected to continuous illumination at 488 nm with a mercury lamp for 20 seconds. The intensity of fluorescence emitted by the biosensor is then measured every 0.4 seconds.

[4] = tested on: HeLa cells; test: Kinetic profile of SYTO62 fluorescence under continuous illumination, HeLa cells treated with anticancer agent; settings: 0.1 μM and 1 μM, 24 hours, 10 μM SYTO62, illumination 50 seconds at 488 nm
Method: The intensity of fluorescence is then measured every second. Each intensity value is then expressed as a percentage of the first fluorescence value measured. (IF: intensity of fluorescence; T: illumination time). HeLa cells (Sigma-Aldrich) are plated into a 96-well format transparent-bottomed black microplate at 20000 cells per well the day before the experiment. […] The intensity of fluorescence emitted by the biosensor is then measured every second.

For CN[C@@H]1C[C@H]2O[C@@](C)([C@@H]1OC)n1c3ccccc3c3c4c(c5c6ccccc6n2c5c31)C(=O)NC4 [staurosporine], the “increase in the fluorescence measured under continuous illumination” value ([1]; 10 μM SYTO13, illumination 300 seconds at 488 nm) was “does not induce an increase in the fluorescence measured”, the “increase in the fluorescence measured under continuous illumination” value ([1]; 10 μM SYTO15, illumination 300 seconds at 516 nm) was “does not induce an increase in the fluorescence measured” and the “increase in the intensity of fluorescence measured under continuous illumination” value (“increase in the intensity” for short) ([2]; 0.1 μM) was “a weaker increase in fluorescence than in the untreated condition”. For the same molecule, the “increase in the intensity” value ([2]; 0.5 μM) was “an increase in fluorescence is no longer measured” and the “increase in the intensity” value ([2]; 1 μM) was “an increase in fluorescence is no longer measured”.
C=C1[C@@H](O)[C@@H]2O[C@]3(CC[C@H](/C=C/[C@@H](C)[C@@H]4CC(C)=C[C@@]5(O[C@H](C[C@@](C)(O)C(=O)O)CC[C@H]5O)O4)O3)CC[C@H]2O[C@@H]1[C@@H](O)C[C@H](C)[C@H]1O[C@@]2(CCCCO2)CC[C@H]1C [okadaic acid] was tested, and the “variation in fluorescence measured under illumination” value [3] was “dose-dependent decrease in the variation in fluorescence”.
In the case of CC(=O)O[C@H]1C(=O)[C@@]2(C)[C@H]([C@H](OC(=O)c3ccccc3)[C@]3(O)C[C@H](OC(=O)[C@H](O)[C@@H](NC(=O)c4ccccc4)c4ccccc4)C(C)=C1C3(C)C)[C@]1(OC(C)=O)CO[C@@H]1C[C@@H]2O [Taxol, Paclitaxel], the “variation in fluorescence measured under illumination” value [4] is reported as “dose-dependent decrease in the variation in fluorescence”.
